Assay results published in patent publication US20240025892A1 (priority 2020, published 2024).

Legend:
RANKL = RANKL gene expression in Ocy454 cells (RT-qPCR); settings: maximal RANKL fold induction versus DMSO, four hours;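 further: Ocy454 cells moved to 37 °C for osteocytic differentiation before compound exposure, RANKL mRNA by SYBR Green qRT-PCR, 2^−ΔΔCT with β-actin normalization, duplicate wells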
SIK3 = SIK3 (Homo sapiens (Human), UniProt Q9Y2K2); experiment: In vitro SIK3 kinase assay; type: biochemical
Procedure: (§1) Assays were performed in base reaction buffer (20 mM Hepes (pH 7.5), 10 mM MgCl2, 1 mM EGTA, 0.02% Brij35, 0.02 mg/mL BSA, 0.1 mM Na3VO4, 2 mM DTT, 1% DMSO). Compounds were dissolved in 100% DMSO in a 10 mM stock. […] Assays were performed for 20 minutes at room temperature, after which time ^33P-ATP (10 μCi/μL) was added followed by incubation for another 120 minutes at room temperature. Thereafter, radioactivity incorporated into the pEY peptide substrate was detected by filter-binding method. Kinase activity data were expressed as the percent remaining kinase activity in test samples compared to DMSO reactions. IC50 values and curve fits were obtained using Prism (GraphPad Software).

Recombinant SIK2 = Recombinant SIK2 (Homo sapiens (Human), UniProt Q9H0K1); experiment: biochemical; settings: recombinant SIK2 2.5 nM, 1 μM ATP; read-out: SIK2 IC50
Procedure: as §1

SIK1 = SIK1 (Homo sapiens (Human), UniProt P57059); experiment: In vitro SIK1 kinase assay; type: biochemical
Procedure: as §1

CRTC2 (TORC2) = experiment: CRTC2 nuclear translocation (PathHunter U2OS); type: cell-based; settings: maximal CRTC2 nuclear translocation, U2OS cells, 90 minutes, maximum dose 10 μM
From the text: PathHunter® Nuclear Translocation cell lines are engineered to co-express two fusion proteins: a) Enzyme Donor (ED) tagged target protein; b) an Enzyme Acceptor (EA) tagged TAZ domain, derived from the CBP/P300 transcription factor, that localizes to the nucleus. Activation of the signaling pathway induces translocation of the ED-tagged target protein into the nucleus, which will force complementation of the two enzyme fragments, and result in the formation of a functional enzyme that will hydrolyze substrate and generate a chemiluminescent signal. U2OS CRTC2 (TORC2) translocation assays were performed in 384 well plates at Eurofins DiscoverX (Freemont, CA). Cells were treated with compounds for 90 minutes in experimental duplicates in 5 point dose response format (4-fold serial dilutions with a maximum dose of 10 μM) followed by […] readout on an Envision 2104 Multilabel Reader. In all experiments, forskolin was used as a positive control and maximal CRTC2 nuclear translocation induced by each compound is expressed as a percentage of the signal stimulated by forskolin.
Representative data are shown in FIG. 4A and presented as percent of the positive control (forskolin) signal.

Chain of SIK1 (P57059 whole entry): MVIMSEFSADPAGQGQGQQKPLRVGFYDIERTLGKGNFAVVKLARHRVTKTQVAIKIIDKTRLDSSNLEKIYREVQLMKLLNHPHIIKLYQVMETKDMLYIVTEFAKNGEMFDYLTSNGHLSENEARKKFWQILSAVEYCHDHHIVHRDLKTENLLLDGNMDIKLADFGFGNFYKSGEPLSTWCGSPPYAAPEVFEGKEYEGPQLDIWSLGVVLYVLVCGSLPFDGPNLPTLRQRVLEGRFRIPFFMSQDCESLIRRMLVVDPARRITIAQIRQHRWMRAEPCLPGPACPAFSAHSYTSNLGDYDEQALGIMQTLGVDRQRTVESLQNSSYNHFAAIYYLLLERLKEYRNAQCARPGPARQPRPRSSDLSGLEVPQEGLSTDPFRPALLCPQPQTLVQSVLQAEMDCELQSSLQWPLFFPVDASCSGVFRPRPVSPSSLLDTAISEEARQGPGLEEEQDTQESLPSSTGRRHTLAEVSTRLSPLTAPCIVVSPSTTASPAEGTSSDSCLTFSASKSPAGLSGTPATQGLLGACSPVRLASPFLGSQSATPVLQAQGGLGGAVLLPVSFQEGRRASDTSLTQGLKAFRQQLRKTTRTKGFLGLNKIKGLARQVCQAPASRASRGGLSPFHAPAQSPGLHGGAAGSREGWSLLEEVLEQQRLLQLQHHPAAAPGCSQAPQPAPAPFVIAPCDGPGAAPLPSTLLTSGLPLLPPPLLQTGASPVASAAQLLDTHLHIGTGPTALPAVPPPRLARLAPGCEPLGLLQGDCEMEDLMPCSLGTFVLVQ
Chain of Recombinant SIK2 (Q9H0K1 whole entry): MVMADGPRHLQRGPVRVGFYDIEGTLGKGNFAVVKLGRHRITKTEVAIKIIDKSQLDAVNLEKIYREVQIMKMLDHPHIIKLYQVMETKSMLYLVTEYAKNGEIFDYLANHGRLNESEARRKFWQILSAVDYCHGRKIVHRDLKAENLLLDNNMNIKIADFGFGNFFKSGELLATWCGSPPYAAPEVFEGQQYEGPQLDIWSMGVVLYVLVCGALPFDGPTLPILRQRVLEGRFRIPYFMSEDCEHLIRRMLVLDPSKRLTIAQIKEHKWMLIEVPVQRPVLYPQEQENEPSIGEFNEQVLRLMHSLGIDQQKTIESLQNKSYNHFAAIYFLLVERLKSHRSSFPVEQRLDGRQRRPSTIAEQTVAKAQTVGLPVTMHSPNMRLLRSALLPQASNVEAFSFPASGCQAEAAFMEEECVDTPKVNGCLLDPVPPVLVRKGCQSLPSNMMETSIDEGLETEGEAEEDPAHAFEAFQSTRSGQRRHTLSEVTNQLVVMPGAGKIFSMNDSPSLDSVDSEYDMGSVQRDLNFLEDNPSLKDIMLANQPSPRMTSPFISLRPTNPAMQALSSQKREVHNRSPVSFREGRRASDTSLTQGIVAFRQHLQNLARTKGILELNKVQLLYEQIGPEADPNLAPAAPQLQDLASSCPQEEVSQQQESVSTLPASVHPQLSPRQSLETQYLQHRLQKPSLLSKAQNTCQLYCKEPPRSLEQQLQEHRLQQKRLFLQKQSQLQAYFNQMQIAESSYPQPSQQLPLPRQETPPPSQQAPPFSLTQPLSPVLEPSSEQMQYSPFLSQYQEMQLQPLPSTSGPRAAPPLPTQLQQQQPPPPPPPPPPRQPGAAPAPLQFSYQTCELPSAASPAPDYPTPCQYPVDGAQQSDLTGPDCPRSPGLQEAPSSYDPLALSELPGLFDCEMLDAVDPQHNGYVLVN
Chain of SIK3 (Q9Y2K2 whole entry): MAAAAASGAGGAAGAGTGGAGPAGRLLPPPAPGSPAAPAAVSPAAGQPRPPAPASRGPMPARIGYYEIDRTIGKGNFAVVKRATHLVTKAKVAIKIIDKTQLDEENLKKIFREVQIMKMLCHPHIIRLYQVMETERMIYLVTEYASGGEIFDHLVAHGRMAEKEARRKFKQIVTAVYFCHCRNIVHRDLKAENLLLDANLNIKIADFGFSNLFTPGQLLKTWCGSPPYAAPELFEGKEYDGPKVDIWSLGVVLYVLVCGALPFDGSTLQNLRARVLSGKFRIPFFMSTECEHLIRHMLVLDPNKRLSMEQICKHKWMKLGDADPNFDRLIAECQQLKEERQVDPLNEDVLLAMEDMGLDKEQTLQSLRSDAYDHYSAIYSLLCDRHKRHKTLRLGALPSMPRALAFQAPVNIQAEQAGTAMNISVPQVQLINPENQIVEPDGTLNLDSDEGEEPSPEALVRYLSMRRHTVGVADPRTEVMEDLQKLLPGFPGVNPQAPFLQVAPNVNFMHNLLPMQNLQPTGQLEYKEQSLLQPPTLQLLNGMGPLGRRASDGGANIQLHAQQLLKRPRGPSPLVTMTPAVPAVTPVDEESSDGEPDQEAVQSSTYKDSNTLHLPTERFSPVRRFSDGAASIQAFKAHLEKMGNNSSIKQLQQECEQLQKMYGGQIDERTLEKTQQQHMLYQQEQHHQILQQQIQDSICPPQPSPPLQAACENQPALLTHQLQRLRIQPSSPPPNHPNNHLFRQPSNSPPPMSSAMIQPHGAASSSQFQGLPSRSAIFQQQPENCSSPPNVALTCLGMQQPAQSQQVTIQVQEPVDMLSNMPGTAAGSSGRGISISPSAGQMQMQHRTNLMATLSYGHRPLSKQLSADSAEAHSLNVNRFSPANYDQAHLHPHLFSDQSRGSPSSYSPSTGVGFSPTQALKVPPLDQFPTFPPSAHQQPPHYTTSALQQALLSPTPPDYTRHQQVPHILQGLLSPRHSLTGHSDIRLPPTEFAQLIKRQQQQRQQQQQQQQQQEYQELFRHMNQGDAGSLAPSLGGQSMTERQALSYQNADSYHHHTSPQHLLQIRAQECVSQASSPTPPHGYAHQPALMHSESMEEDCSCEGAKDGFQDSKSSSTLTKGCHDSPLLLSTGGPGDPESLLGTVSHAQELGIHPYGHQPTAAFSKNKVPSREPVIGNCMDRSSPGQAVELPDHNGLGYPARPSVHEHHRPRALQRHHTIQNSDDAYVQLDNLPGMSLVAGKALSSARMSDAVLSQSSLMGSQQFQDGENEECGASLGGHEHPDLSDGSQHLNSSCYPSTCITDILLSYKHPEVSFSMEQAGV

SMILES | RANKL Fold Induction (RANKL) [fold] | IC50 (SIK3) [nM] | IC50 (Recombinant SIK2) [nM] | IC50 (SIK1) [nM] | CRTC2 Efficacy (% of forskolin) (CRTC2 (TORC2))
CC1(COc2ccc3c(c2)ncn3-c2ccc3cccc(C4CCNC4)c3n2)COC1 (stereo not drawn) [Example 16, 2-(5-((3-Methyloxetan-3-yl)methoxy)-1H-benzo[d]imidazol-1-yl)-8-(pyrrolidin-3-yl)quinoline] | 27.76 | 4.43 | 3.39 | 16.6 | 
CN1CCC(c2cccc3ccc(-n4cnc5cc(OCC6(C)COC6)ccc54)nc23)C1 (stereo not drawn) [Example 17, 2-(5-((3-Methyloxetan-3-yl)methoxy)-1H-benzo[d]imidazol-1-yl)-8-(1-methylpyrrolidin-3-yl)quinoline] | 12.73 | 15.4 | 1.04 | 53.3 | 
Cn1c(CNC(=O)c2ccn3c(-c4ccc(C#N)cc4)cnc3c2)nc2ccccc21 [Example 23, 3-(4-cyanophenyl)-N-((1-methyl-1H-benzo[d]imidazol-2-yl)methyl)imidazo[1,2-a]pyridine-7-carboxamide] |  | 861 | 14.3 |  | 19.8 % of forskolin
N#Cc1ccc(-c2cnc3cc(C(=O)N4CCn5c(nc6ccccc65)C4)ccn23)cc1 [Example 28, 4-(7-(1,2,3,4-tetrahydrobenzo[4,5]imidazo[1,2-a]pyrazine-2-carbonyl)imidazo[1,2-a]pyridin-3-yl)benzonitrile] | 1.25 | 8090 | 597 |  | 3.4 % of forskolin
CN(Cc1nc2ccccc2n1C)C(=O)c1ccn2c(-c3ccc(C#N)cc3)cnc2c1 [Example 29, 3-(4-Cyanophenyl)-N-methyl-N-[(1-methylbenzimidazol-2-yl)methyl]imidazo[1,2-a]pyridine-7-carboxamide] | 1.48 | 8340 | 608 |  | 2.8 % of forskolin
CC1(COc2ccn3c(-c4ccc(C#N)cc4)cnc3c2)COC1 [Example 38, 4-[7-[(3-Methyloxetan-3-yl)methoxy]imidazo[1,2-a]pyridin-3-yl]benzonitrile] | 0.37 |  | 211 |  | 10.1 % of forskolin
CCc1nnc(-c2c(OC)cc(-c3cnc4cc(OCC5(C)COC5)ccn34)cc2OC)o1 [Example 39, 2-(2,6-dimethoxy-4-(7-((3-methyloxetan-3-yl)methoxy)imidazo[1,2-a]pyridin-3-yl)phenyl)-5-ethyl-1,3,4-oxadiazole] |  | 83.6 | 136 | 2680 | 
CCc1nnc(-c2c(OC)cc(-c3cnc4cc(OCc5ccc(C)nc5)ccn34)cc2OC)o1 [Example 42, 2-[2,6-Dimethoxy-4-[7-[(6-methyl-3-pyridyl)methoxy]imidazo[1,2-a]pyridin-3-yl]phenyl]-5-ethyl-1,3,4-oxadiazole] |  | 47 | 37 | 1180 | 
CCn1cc(-c2ccn3c(-c4ccc(C#N)c(C)c4)cnc3c2)cn1 [Example 47, 4-(7-(1-ethyl-1H-pyrazol-4-yl)imidazo[1,2-a]pyridin-3-yl)-2-methylbenzonitrile] | 17.43 | 4.16 | 0.855 | 8.34 | 
CCc1nnc(-c2c(OC)cc(-c3cnn4cc(-c5cnn(C6CC6)c5)ccc34)cc2OC)o1 [Example 53, 2-(4-(6-(1-cyclopropyl-1H-pyrazol-4-yl)pyrazolo[1,5-a]pyridin-3-yl)-2,6-dimethoxyphenyl)-5-ethyl-1,3,4-oxadiazole] |  | 2.62 | 1.77 | 17.4 | 
COc1cc(-c2cnc3cc(-c4cnn(C)c4)ccn23)cc(OC)c1-c1nnc(C2CC2)o1 [Example 60, 2-cyclopropyl-5-(2,6-dimethoxy-4-(7-(1-methyl-1H-pyrazol-4-yl)imidazo[1,2-a]pyridin-3-yl)phenyl)-1,3,4-oxadiazole] | 307.25 | 1.64 | 1.49 | 4.45 | 
